Source: US4844897A, “Anti-tumor protease preparations” (Maeda; Hiroshi, priority 1985, dated 1989)

B1: Papain: protease of plant origin (protein, UniProt P00784 134-345, looked up)
Papain: IPEYVDWRQKGAVTPVKNQGSCGSCWAFSAVVTIEGIIKIRTGNLNEYSEQELLDCDRRSYGCNGGYPWSALQLVAQYGIHYRNTYPYEGVQRYCRSREKGPYAAKTDGVRQVQPYNEGALLYSIANQPVSVVLEAAGKDFQLYRGGIFVGPCGNKVDHAVAAVGYGPNYILIKNSWGTGWGENGYIRIKRGTGNSYGVCGLYTSSFYPVKN

Experiments:
Meth A tumor = assay: Effectiveness on mouse solid tumor (methylcholanthrene-induced Meth A tumor); format: in vivo, Balb/C mouse; conditions: injected into solid tumors, 0.1 ml, two administrations (once for each day); FIG. 3
Method: Anti-tumor actions of various proteases: Effectiveness on mouse solid tumor (i.e., effect on methylcholanthrene-induced tumor (Meth A tumor):
The diameters of the tumors after two administrations (once for each day) were measured.

[1] = test system: α1 anti-trypsin, α2 antichymotrypsin, α2 macroglobulin, etc.; assay: Inhibition of protease activity by protease-inhibiting substances in vivo
tumors = assay: Anti-tumor action of proteases (general statement); format: in vivo
GMK = assay: Cytotoxicity induced by protease activity in the presence of serum; format: cell-based, African green monkey
Method: (§1) Cell toxicity of various proteases against cultured cells and influences of serum on the cell toxicity:
(§2) The present inventors have investigated cell-killing effects of various proteases by adding the proteases to various cultured cells, and also at the same time the effect of serum on the cytotoxicity.
(§3) A 0.5 ml aliquot of RPMI-1640 medium or Eagle's NEM medium containing 10% bovine fetal calf serum was placed in a Lab Tech plastic chamber of 8-well type, (Falcon Inc.), and suspensions of various tumor cells, each containing about 1×10^4 cells in 0.5 ml, were added thereto and cultured in an incubator at 37° C. in 5% CO2 (95% being air). After 24 hours, the cells in the Lab Tech chambers were allowed to culture under three different condition. In group A, they were replaced in RPMI medium with 10% fetal calf serum containing different concentrations of test protease. In group B, the same medium with appropriate protease was used but devoid of serum; In group C, a control medium was used with 10% serum but without protease. One hour and 24 hours after the culturing cytotoxicity, observed microscopically, was determined by counting the number of cells and by morphological investigation.
(§4) (b) Numerals show reciprocal number of dilution for obtaining the
(§5) equivalent effect after 24hour treatment on the basis of the effect of th […]

Vero = assay: as above; format: cell-based, monkey
Method: as §1, §2
(§6) After 24 hours, the cells in the Lab Tech chambers were allowed to culture under three different condition. In group A, they were replaced in RPMI medium with 10% fetal calf serum containing different concentrations of test protease. In group B, the same medium with appropriate protease was used but devoid of serum; In group C, a control medium was used with 10% serum but without protease. One hour and 24 hours after the culturing cytotoxicity, observed microscopically, was determined by counting the number of cells and by morphological investigation.

tumor cell = assay: Effect of serum on tumor cell toxicity with time; format: cell-based; conditions: presence of serum; 24-hour vs one-hour treatment
Method: as §1, §2, §6

HeLa = assay: Cytotoxicity induced by protease activity in the presence of serum; format: cell-based
Method: as §1, §2, §6

HEL = assay: as above; format: cell-based, human
Method: as §1, §2, §3, §4, §5

[2] = test system: Human fetus lung fibroblast (HEL); assay: Toxicity of various proteases against cultured cells, serum-free; format: cell-based; conditions: normal cell, absence of serum, 24-hour treatment
Method: as §1, §2, §6

[3] = test system: Human normal T-lymphocytes; assay: as above; format: cell-based; conditions: absence of serum, 24-hour treatment
Method: as §1, §2, §6

[4] = test system: Burkitt's lymphoma (Raji); assay: as above; format: cell-based; conditions: absence of serum, 24-hour treatment
Method: as §1, §2, §6

[5] = test system: Mouse leukemia (RL.male. 1); assay: as above; format: cell-based; conditions: absence of serum, 24-hour treatment
Method: as §1, §2, §6

Human fibroblast (WISH) = assay: as above; format: cell-based; conditions: normal cell, absence of serum, 24-hour treatment
Method: as §1, §2, §6

[6] = test system: African green monkey kidney (Epithelial cells); assay: as above; format: cell-based; conditions: normal, absence of serum, 24-hour treatment
Method: as §1, §2, §6

[7] = test system: Human submaxillary gland tumor (HSG); assay: as above; format: cell-based; conditions: absence of serum, 24-hour treatment
Method: as §1, §2, §6

[8] = test system: Monkey kidney fibroblast (Vero); assay: as above; format: cell-based; conditions: normal cell, absence of serum, 24-hour treatment
Method: as §1, §2, §6

Rat neuroblastoma (C6) = assay: as above; format: cell-based; conditions: absence of serum, 24-hour treatment
Method: as §1, §2, §6

[9] = test system: Human laryngeal carcinoma (HEp-2); assay: as above; format: cell-based; conditions: absence of serum, 24-hour treatment
Method: as §1, §2, §6

[10] = test system: Rat hepatocytes (Liver cells); assay: as above; format: cell-based; conditions: normal, absence of serum, 24-hour treatment
Method: as §1, §2, §6

[11] = test system: Cervical canal cancer (HeLa); assay: as above; format: cell-based; conditions: absence of serum, 24-hour treatment
Method: as §1, §2, §6

C6 = assay: Cytotoxicity induced by protease activity in the presence of serum; format: cell-based, rat
Method: as §1, §2, §6

HSG = assay: as above; format: cell-based, human
Method: as §1, §2, §6

HeP2 = assay: as above; format: cell-based, human
Method: as §1, §2, §6

WISH = assay: as above; format: cell-based, human
Method: as §1, §2, §6

Molecule | action against tumor propagation (Meth A solid tumor) (Meth A tumor) | inhibition of activity by protease-inhibiting substances in vivo [1] | anti-tumor action / effect on propagation of tumors (tumors) | Cytotoxicity in the presence of serum with time (reciprocal number of dilution for equivalent effect after 24-hour vs one-hour treatment) (GMK) | Cytotoxicity in the presence of serum with time (reciprocal number of dilution for equivalent effect after 24-hour vs one-hour treatment) (Vero) | cytotoxic effects in 24-hour treatment than one-hour treatment (tumor cell) | Cytotoxicity in the presence of serum with time (reciprocal number of dilution for equivalent effect after 24-hour vs one-hour treatment) (HeLa) | Cytotoxicity in the presence of serum with time (reciprocal number of dilution for equivalent effect after 24-hour vs one-hour treatment) (HEL) | Minimum effective concentration [2] [µg/mL] | Minimum effective concentration [3] [µg/mL] | Minimum effective concentration [4] [µg/mL] | Minimum effective concentration [5] [µg/mL] | Minimum effective concentration (Human fibroblast (WISH)) [µg/mL] | Minimum effective concentration [6] [µg/mL] | Minimum effective concentration [7] [µg/mL] | Minimum effective concentration [8] [µg/mL] | Minimum effective concentration (Rat neuroblastoma (C6)) [µg/mL] | Minimum effective concentration [9] [µg/mL] | Minimum effective concentration [10] [µg/mL] | Minimum effective concentration [11] [µg/mL] | also measured
pepsin | no substantial action against the tumor propagation | completely inhibited | no anti-tumor action |  |  |  |  |  |  |  |  |  |  |  |  |  |  |  |  |  | 
Trypsin | no substantial action against the tumor propagation | completely inhibited | no anti-tumor action | 2 | 2-4 | no substantial enhancement | 2-4 | 2 | 0.20 | 0.39 | 0.05 | 0.78 | 1.56 | 0.39 | 0.39 | 1.56 | 1.56 | 1.56 | > 5.0 | 0.78 | Cytotoxicity in the presence of serum with time (reciprocal number of dilution for equivalent effect after 24-hour vs one-hour treatment) (C6): 2; Cytotoxicity in the presence of serum with time (reciprocal number of dilution for equivalent effect after 24-hour vs one-hour treatment) (HSG): 2-4; Cytotoxicity in the presence of serum with time (reciprocal number of dilution for equivalent effect after 24-hour vs one-hour treatment) (HeP2): 0-4; Cytotoxicity in the presence of serum with time (reciprocal number of dilution for equivalent effect after 24-hour vs one-hour treatment) (WISH): 4
chymotrypsin |  | completely inhibited | no anti-tumor action |  |  |  |  |  |  |  |  |  |  |  |  |  |  |  |  |  | 
B1 | no substantial action against the tumor propagation | completely inhibited | no anti-tumor action | 2 | 2-4 | no substantial enhancement | 2-4 | 2 | 0.20 | 0.37 | 0.06 | 0.82 | 1.52 | 0.38 | 0.38 | 1.58 | 1.60 | 1.60 | > 5.0 | 0.84 | Cytotoxicity in the presence of serum with time (reciprocal number of dilution for equivalent effect after 24-hour vs one-hour treatment) (C6): 2; Cytotoxicity in the presence of serum with time (reciprocal number of dilution for equivalent effect after 24-hour vs one-hour treatment) (HSG): 2-4; Cytotoxicity in the presence of serum with time (reciprocal number of dilution for equivalent effect after 24-hour vs one-hour treatment) (HeP2): 0-4; Cytotoxicity in the presence of serum with time (reciprocal number of dilution for equivalent effect after 24-hour vs one-hour treatment) (WISH): 2
